Results reported in patent US9835614B2, “Measurement of cell growth and drug susceptibility by resonant mass measurement” (Affinity Biosensors, LLC, priority 2013, dated 2017).

Test system: E. coli
Assay: Resonant mass measurement of growth of E. coli cultures with antibiotics
Assay type: cell-based

## CC1(C)S[C@@H]2[C@H](NC(=O)[C@H](N)c3ccccc3)C(=O)N2[C@H]1C(=O)O [ampicillin]
E. coli in nutrient broth containing 64 μg/ml, cultures measured cyclically via selection valve
  time development of mass and number of microbes in culture (FIG. 4): grow robustly
E. coli, 64 μg/ml, concentration calculated in each time interval
  microbe number concentration growth curve (number of microbes per ml, FIG. 5(a)): begins at about one hour
At the measured concentration (64 μg/ml)
  diagnostic susceptibility of the E. coli strain: resistant
